Source: publication PMC3985444 (Journal of Chemical Information and Modeling, 2014)

Columns and labels:
5-HT2A = details: cited from earlier work
dopamine receptors = details: cited from earlier work
human 5-HT1A receptor = target: T1, human 5-HT1A receptor (Homo sapiens, UniProt P08908); assay: Radioligand competition binding assay
T1 sequence (P08908 1-422): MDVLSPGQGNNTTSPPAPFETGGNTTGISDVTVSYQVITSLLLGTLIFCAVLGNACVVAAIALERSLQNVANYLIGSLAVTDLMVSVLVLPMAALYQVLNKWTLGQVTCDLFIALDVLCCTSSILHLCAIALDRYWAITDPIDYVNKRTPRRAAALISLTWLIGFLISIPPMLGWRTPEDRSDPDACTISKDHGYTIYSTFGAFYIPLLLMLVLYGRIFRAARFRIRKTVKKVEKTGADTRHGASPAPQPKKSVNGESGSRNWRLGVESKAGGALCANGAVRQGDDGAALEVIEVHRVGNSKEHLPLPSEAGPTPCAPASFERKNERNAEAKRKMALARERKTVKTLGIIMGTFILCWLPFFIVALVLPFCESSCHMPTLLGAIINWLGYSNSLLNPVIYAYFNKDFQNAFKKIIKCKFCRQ

5-HT1B = details: cited from earlier work
5-HT1D = details: cited from earlier work

| SMILES | binding with 5-HT2A (5-HT2A) | binding with dopamine receptors (dopamine receptors) | Ki (human 5-HT1A receptor) [µM] | binding to 5-HT1B (5-HT1B) | binding to 5-HT1D (5-HT1D) |
| --- | --- | --- | --- | --- | --- |
| CN1CCCCC1CCN1c2ccccc2Sc2ccc([S+](C)[O-])cc21 (stereo not shown) [Mesoridazine] | potent binding | potent binding | 0.0331 | – | – |
| CC[C@@H](CO)NC(=O)[C@@H]1C=C2c3cccc4c3c(cn4C)C[C@H]2N(C)C1 [Methysergide] | – | – | 0.026 | – | – |
| CN1C[C@@H](CO)C=C2c3cccc4[nH]cc(c34)C[C@H]21 [ST057540, [(8α)-6-methyl-9,10-didehydroergolin-8-yl]methanol] | – | – | 0.0023 | high-affinity binding | high-affinity binding |
